Test results published in ChEMBL document CHEMBL3085654, “Synthesis and evaluation of N-acylamino acids derivatives of triazenes. Activation by tyrosinase in human melanoma cell lines” (Eur J Med Chem, 2013).
Calls of active or inactive are those of the source. The rule behind the calls is not given here.

B1: Tyrosinase (Agaricus bisporus), O42713 (protein)
chain: MSLIATVGPTGGVKNRLNIVDFVKNEKFFTLYVRSLELLQAKEQHDYSSFFQLAGIHGLPFTEWAKERPSMNLYKAGYCTHGQVLFPTWHRTYLSVLEQILQGAAIEVAKKFTSNQTDWVQAAQDLRQPYWDWGFELMPPDEVIKNEEVNITNYDGKKISVKNPILRYHFHPIDPSFKPYGDFATWRTTVRNPDRNRREDIPGLIKKMRLEEGQIREKTYNMLKFNDAWERFSNHGISDDQHANSLESVHDDIHVMVGYGKIEGHMDHPFFAAFDPIFWLHHTNVDRLLSLWKAINPDVWVTSGRNRDGTMGIAPNAQINSETPLEPFYQSGDKVWTSASLADTARLGYSYPDFDKLVGGTKELIRDAIDDLIDERYGSKPSSGARNTAFDLLADFKGITKEHKEDLKMYDWTIHVAFKKFELKESFSLLFYFASDGGDYDQENCFVGSINAFRGTAPETCANCQDNENLIQEGFIHLNHYLARDLESFEPQDVHKFLKEKGLSYKLYSRGDKPLTSLSVKIEGRPLHLPPGEHRPKYDHTQARVVFDDVAVHVIN

Key:
[1] = Half life in PBS buffer at 10^-5 M at pH 7.4 by HPLC analysis; type: ADME
[2] = Stability in phosphate buffer assessed as mushroom tyrosinase-mediated prodrug conversion at 10^-5 M at pH 7.4 after 1 hr by HPLC analysis in presence of mushroom tyrosinase; type: ADME; conditions: agaricus bisporus, pH 7.4, 1 h, 10 µM
[3] = Half life in 80% human plasma at 10^-5 M by HPLC analysis; type: ADME, cell-free
[4] = Octanol-phosphate buffer apparent partition coefficient, log P of the compound at pH7.4 after 30 mins by HPLC analysis; type: physicochemical; conditions: pH 7.4
[5] = Chemical stability in PBS buffer at 10^-5 M at pH 7.4 after 15 days by HPLC analysis; type: physicochemical; conditions: pH 7.4, 360 h, 10 µM
[6] = Half life in phosphate buffer assessed as mushroom tyrosinase-mediated prodrug conversion at 10^-5 M at pH 7.4 by HPLC analysis; type: ADME; conditions: agaricus bisporus, pH 7.4, 10 µM
[7] = system: MNT1; test: (§1) Induction of apoptosis in human MNT1 cells assessed as apoptotic/necrotic cells at 50 uM after 48 hrs by APC-labeled annexin V and 7-AAD staining-based flow cytometric analysis relative to control; type: functional
[8] = system: SK-MEL-30; test: Induction of apoptosis in human SK-MEL-30 cells assessed as apoptotic/necrotic cells at 100 uM after 48 hrs by APC-labeled annexin V and 7-AAD staining-based flow cytometric analysis relative to control; type: functional
[9] = system: M8; test: Induction of apoptosis in human M8 cells assessed as apoptotic/necrotic cells at 50 to 100 uM after 48 hrs by APC-labeled annexin V and 7-AAD staining-based flow cytometric analysis; type: functional, cell-based
[10] = system: SK-MEL-30; test: Induction of apoptosis in human SK-MEL-30 cells assessed as apoptotic/necrotic cells at 50 uM after 48 hrs by APC-labeled annexin V and 7-AAD staining-based flow cytometric analysis relative to control; type: functional
[11] = system: MNT1; test: (§2) Induction of apoptosis in human MNT1 cells assessed as apoptotic/necrotic cells at 100 uM after 48 hrs by APC-labeled annexin V and 7-AAD staining-based flow cytometric analysis relative to control; type: functional
[12] = as §1; type: functional
[13] = system: MNT1; test: Induction of apoptosis in human MNT1 cells assessed as apoptotic/necrotic cells after 48 hrs by APC-labeled annexin V and 7-AAD staining-based flow cytometric analysis; type: functional, cell-based
[14] = as §2; type: functional
[15] = substrate: COC(=O)c1ccc(/N=N/N(C)C(=O)[C@H](Cc2ccc(O)cc2)NC(C)=O)cc1; test: (§3) Activity at mushroom tyrosinase by Michaelis-Menten plot analysis; conditions: Agaricus bisporus
[16] = substrate: N[C@@H](Cc1ccc(O)cc1)C(=O)O; test: as §3; conditions: Agaricus bisporus
[17] = substrate: NCCc1ccc(O)c(O)c1; test: as §3; conditions: Agaricus bisporus
[18] = substrate: CC(=O)N[C@@H](Cc1ccc(O)cc1)C(=O)N(C)/N=N/c1ccc(C#N)cc1; test: as §3; conditions: Agaricus bisporus
[19] = substrate: NCCc1ccc(O)cc1; test: as §3; conditions: Agaricus bisporus
[20] = substrate: COC(=O)c1ccc(/N=N/N(C)C(=O)[C@H](Cc2ccc(O)cc2)NC(C)=O)cc1; test: (§4) Ratio of Kcat to Km for mushroom tyrosinase; conditions: Agaricus bisporus
[21] = substrate: CC(=O)N[C@@H](Cc1ccc(O)cc1)C(=O)N(C)/N=N/c1ccc(C#N)cc1; test: as §4; conditions: Agaricus bisporus

Molecule | half-life at 10 µM [1] [h] | half-life at 10 µM [3] [h] | logD at 0.5 h [4] | t1/2 [6] [h] | Activity [12] [%] | Activity [13] | Activity [14] [%] | further results
CN(/N=N/c1ccc(C#N)cc1)C(=O)[C@H](Cc1ccc(O)cc1)NC(=O)OC(C)(C)C | 48.5 | 8.1 | 3.9 | – | – | – | – | Stability [2]: Stable
CC(=O)N[C@@H](Cc1ccc(O)cc1)C(=O)N(C)/N=N/c1ccc(Br)cc1 | – | 6.8 | 3.36 | 0.148 | – | – | – | Stability [5]: Stable
Cn1nnc2c(C(N)=O)ncn2c1=O | – | – | – | – | – | – | – | Activity [7]: Active; Activity [8]: Active; Activity [9]: Active; Activity [10]: Active; Activity [11]: Active
CC(=O)N[C@@H](Cc1ccc(O)cc1)C(=O)N(C)/N=N/c1ccc(C(C)=O)cc1 | 56.6 | 1.41 | 2.33 | 0.33 | 7.88 | Dose-dependent effect | 11.23 | –
CC(=O)c1ccc(/N=N/N(C)C(=O)[C@H](Cc2ccc(O)cc2)NC(=O)OC(C)(C)C)cc1 | 72.2 | 9.54 | 3.85 | – | – | – | – | Stability [2]: Stable
COC(=O)c1ccc(/N=N/N(C)C(=O)[C@H](Cc2ccc(O)cc2)NC(C)=O)cc1 | 75.1 | 2.8 | 2.12 | 0.305 | – | – | – | –
CC(=O)N[C@@H](Cc1ccc(O)cc1)C(=O)N(C)/N=N/c1ccc(C(N)=O)cc1 | 40.6 | 5.19 | 1.27 | 0.29 | – | – | – | –
CC(=O)N[C@@H](Cc1ccc(O)cc1)C(=O)N(C)/N=N/c1ccc(C#N)cc1 | 42.7 | 1.23 | 2.14 | 0.26 | 8.5 | Dose-dependent effect | 17.01 | Activity [8]: 12.47%; Activity [9]: inactive; Activity [10]: 10.41%
CCOC(=O)c1ccc(/N=N/N(C)C(=O)[C@H](Cc2ccc(O)cc2)NC(C)=O)cc1 | 70.3 | 5.32 | 2.96 | 0.3 | 17.46 | Dose-dependent effect | 21.23 | –
B1 | – | – | – | – | – | – | – | Km [15]: 220 µM; Vmax [15]: 9.7 ×10⁻⁶ mM/min; kcat [15]: 0.05 s⁻¹; Km [16]: 250 µM; Km [17]: 280 µM; Km [18]: 200 µM; Vmax [18]: 5.4 ×10⁻⁶ mM/min; kcat [18]: 0.03 s⁻¹; Km [19]: 540 µM; kcat/Km [20]: 246 M⁻¹ s⁻¹; kcat/Km [21]: 151 M⁻¹ s⁻¹
